Experimental data as given in patent publication US10479784B2, “Substituted pyrazin-2-amines as inhibitors of ATR kinase” (Vertex Pharmaceuticals Incorporated, priority 2008, dated 2019).

target: full-length ATR (Homo sapiens (Human), UniProt Q13535); test: ATR Inhibition Assay (radioactive-phosphate incorporation); format: biochemical; settings: read-out: ATR Ki
In short: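 Ki(app) was derived by non-linear regression of background-corrected initial rates of 33P incorporation into an 800 μM target peptide, read by phosphocellulose filter scintillation counting. Reaction conditions: 5 nM full-length ATR, 10 μM [γ-33P]ATP, pH 7.5 Tris buffer with MgCl2 and DTT, 25 °C, 10-min preincubation, 24 h run.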

Sequence of full-length ATR (Q13535 whole entry): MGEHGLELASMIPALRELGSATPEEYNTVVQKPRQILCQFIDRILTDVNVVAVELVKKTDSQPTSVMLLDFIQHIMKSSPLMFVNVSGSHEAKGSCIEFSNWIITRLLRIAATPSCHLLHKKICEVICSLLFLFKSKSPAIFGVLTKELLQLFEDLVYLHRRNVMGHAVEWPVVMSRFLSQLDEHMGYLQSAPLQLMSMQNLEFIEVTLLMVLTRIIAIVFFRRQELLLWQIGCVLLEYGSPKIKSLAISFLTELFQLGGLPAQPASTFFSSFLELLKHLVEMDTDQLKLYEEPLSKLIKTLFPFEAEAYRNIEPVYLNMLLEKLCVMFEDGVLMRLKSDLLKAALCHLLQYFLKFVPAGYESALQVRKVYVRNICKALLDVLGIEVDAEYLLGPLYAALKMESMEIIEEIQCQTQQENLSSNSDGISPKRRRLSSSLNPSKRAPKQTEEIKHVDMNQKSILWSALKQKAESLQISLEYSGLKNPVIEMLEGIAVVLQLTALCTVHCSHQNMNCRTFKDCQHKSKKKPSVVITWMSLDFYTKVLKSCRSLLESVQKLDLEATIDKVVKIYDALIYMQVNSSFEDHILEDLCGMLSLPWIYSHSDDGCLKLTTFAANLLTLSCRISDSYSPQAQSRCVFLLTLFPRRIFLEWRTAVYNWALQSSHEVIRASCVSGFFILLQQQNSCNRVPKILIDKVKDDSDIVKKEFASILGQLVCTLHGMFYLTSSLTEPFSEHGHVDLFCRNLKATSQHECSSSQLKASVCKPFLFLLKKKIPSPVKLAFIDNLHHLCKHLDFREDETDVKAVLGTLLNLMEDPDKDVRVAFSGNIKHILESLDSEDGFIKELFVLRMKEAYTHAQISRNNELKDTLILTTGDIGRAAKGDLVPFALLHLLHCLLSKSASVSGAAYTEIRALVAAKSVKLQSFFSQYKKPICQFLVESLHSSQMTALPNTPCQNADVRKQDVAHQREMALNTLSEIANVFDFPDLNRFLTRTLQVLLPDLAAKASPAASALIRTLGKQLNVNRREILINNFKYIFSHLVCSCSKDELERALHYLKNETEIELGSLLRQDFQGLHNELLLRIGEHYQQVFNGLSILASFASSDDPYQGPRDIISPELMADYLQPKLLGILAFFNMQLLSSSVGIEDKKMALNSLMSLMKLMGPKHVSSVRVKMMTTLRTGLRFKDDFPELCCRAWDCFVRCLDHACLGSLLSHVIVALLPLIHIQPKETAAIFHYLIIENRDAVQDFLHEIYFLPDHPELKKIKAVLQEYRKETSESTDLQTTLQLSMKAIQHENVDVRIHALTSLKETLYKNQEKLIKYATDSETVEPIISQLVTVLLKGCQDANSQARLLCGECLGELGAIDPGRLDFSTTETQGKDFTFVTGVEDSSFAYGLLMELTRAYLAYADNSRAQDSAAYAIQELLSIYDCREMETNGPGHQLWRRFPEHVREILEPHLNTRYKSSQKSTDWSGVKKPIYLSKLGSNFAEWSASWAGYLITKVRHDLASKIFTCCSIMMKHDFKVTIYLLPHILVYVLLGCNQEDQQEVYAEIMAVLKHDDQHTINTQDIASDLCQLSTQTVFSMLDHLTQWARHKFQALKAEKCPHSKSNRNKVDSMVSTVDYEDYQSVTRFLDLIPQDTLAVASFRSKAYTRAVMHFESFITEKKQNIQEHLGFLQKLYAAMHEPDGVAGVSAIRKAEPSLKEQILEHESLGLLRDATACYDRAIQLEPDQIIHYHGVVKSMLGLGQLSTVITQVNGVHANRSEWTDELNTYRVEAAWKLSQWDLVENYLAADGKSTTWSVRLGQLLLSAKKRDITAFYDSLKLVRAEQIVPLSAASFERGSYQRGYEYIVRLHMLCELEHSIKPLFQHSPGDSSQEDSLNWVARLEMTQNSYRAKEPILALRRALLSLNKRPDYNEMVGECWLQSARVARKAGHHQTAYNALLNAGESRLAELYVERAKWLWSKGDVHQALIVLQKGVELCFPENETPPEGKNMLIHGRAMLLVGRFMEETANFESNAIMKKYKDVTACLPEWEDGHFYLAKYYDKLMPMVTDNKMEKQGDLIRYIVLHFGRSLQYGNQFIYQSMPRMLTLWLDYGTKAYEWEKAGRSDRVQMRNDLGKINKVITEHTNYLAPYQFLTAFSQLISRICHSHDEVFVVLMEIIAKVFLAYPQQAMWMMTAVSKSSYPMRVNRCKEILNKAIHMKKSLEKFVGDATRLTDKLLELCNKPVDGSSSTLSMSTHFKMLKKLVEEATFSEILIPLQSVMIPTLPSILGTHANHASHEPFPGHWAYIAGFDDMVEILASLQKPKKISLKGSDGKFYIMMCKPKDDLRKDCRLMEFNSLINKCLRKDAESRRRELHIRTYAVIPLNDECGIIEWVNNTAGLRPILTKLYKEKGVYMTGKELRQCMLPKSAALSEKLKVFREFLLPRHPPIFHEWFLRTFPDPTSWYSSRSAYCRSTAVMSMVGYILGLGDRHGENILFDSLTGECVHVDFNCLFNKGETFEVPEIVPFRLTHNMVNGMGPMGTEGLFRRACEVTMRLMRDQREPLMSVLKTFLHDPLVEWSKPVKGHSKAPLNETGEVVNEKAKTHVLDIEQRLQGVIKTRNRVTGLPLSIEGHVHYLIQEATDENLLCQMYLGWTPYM

Which Ki does the source give for `Cc1cccc(-c2cnc(N)c(-c3nnc(-c4ccccc4)o3)n2)c1` [IA-182, 5-(m-tolyl)-3-(5-phenyl-1,3,4-oxadiazol-2-yl)pyrazin-2-amine] here?
Its Ki is 0.1 to 5 µM.

`CNCc1ccc(-c2nnc(-c3nc(-c4ccc(S(=O)(=O)C(C)C)cc4Cl)cnc3N)o2)cc1` [IA-316, 5-(2-chloro-4-isopropylsulfonyl-phenyl)-3-[5-[4-(methylaminomethyl)phenyl]-1,3,4-oxadiazol-2-yl]pyrazin-2-amine] was tested. Which Ki did it give?
Its Ki is no more than 0.01 µM.

`CC(C)S(=O)(=O)c1ccc(-c2cnc(N)c(-c3nnc(-c4ccc(CNCCF)cc4F)o3)n2)cc1` [IA-340, 3-[5-[2-fluoro-4-[(2-fluoroethylamino)methyl]phenyl]-1,3,4-oxadiazol-2-yl]-5-(4-isopropylsulfonylphenyl)pyrazin-2-amine] was tested. Which Ki did it give?
The Ki was no more than 0.01 µM.

With `Nc1ncc(-c2ccc(C(=O)N3CCCNCC3)cc2)nc1C(=O)Nc1n[nH]c2ccccc12` [Compound V-8] as the molecule, how does the Ki read?
Its Ki is no more than 0.01 µM.

Which Ki does the source give for `CSc1ccccc1-c1cnc(N)c(-c2nnc(-c3ccccc3)o2)n1` [IA-230, 5-(2-methylsulfanylphenyl)-3-(5-phenyl-1,3,4-oxadiazol-2-yl)pyrazin-2-amine] here?
Its Ki is 0.01 to 0.1 µM.

For `Nc1ncc(-c2cncnc2)nc1C(=O)Nc1ccccc1` [Compound I-40, 3-amino-N-phenyl-6-(pyrimidin-5-yl)pyrazine-2-carboxamide], which Ki is on record?
Its Ki is 0.1 to 5 µM.

For `Nc1ncc(-c2cccnc2)nc1C(=O)Nc1cccn2ncnc12` [Compound V-14], which Ki is on record?
Its Ki is 0.1 to 5 µM.

Which Ki does the source give for `Cn1c(NC(=O)c2nc(-c3ccc(C(=O)N4CCCNCC4)cc3)cnc2N)nc2ccccc21` [Compound V-25] here?
The Ki was 0.1 to 5 µM.

`Nc1ncc(-c2cccc(OC(F)(F)F)c2)nc1-c1nnc(-c2ccccc2)o1` [IA-150, 3-(5-phenyl-1,3,4-oxadiazol-2-yl)-5-[3-(trifluoromethoxy)phenyl]pyrazin-2-amine] was tested. Which Ki did it give?
The Ki was 0.1 to 5 µM.

`CC(C)[S+]([O-])c1ccc(-c2cnc(N)c(-c3nnc(-c4ccccc4)o3)n2)cc1` (centres unmarked) [IA-90, 5-(4-isopropylsulfinylphenyl)-3-(5-phenyl-1,3,4-oxadiazol-2-yl)pyrazin-2-amine] was tested. Which Ki did it give?
Its Ki is no more than 0.01 µM.

Which Ki does the source give for `Nc1ncc(-c2ccccc2CO)nc1C(=O)Nc1ccccc1` [Compound I-19, 3-amino-6-(2-(hydroxymethyl)phenyl)-N-phenylpyrazine-2-carboxamide] here?
Its Ki is 0.01 to 0.1 µM.

Which Ki does the source give for `N#Cc1ccc(-c2cnc(N)c(C(=O)Nc3ccccc3)n2)cc1` [Compound I-21, 3-amino-6-(4-cyanophenyl)-N-phenylpyrazine-2-carboxamide] here?
Its Ki is 0.01 to 0.1 µM.

Which Ki does the source give for `CC(C)S(=O)(=O)c1ccc(-c2cnc(N)c(-c3nnc(-c4ccc(CCN)cc4)o3)n2)cc1` [IA-107, 3-[5-[4-(2-aminoethyl)phenyl]-1,3,4-oxadiazol-2-yl]-5-(4-isopropylsulfonylphenyl)pyrazin-2-amine] here?
Its Ki is no more than 0.01 µM.

Which Ki does the source give for `Nc1ncc(-c2ccncc2)nc1-c1nnc(-c2cccs2)o1` [IA-141, 5-(4-pyridyl)-3-[5-(2-thienyl)-1,3,4-oxadiazol-2-yl]pyrazin-2-amine] here?
Its Ki is no more than 0.01 µM.

With `CS(=O)(=O)c1ccc(-c2cnc(N)c(C(=O)Nc3n[nH]c4ccccc34)n2)cc1` [Compound V-13] as the molecule, how does the Ki read?
The Ki was 0.1 to 5 µM.

`CN1CCN(C(=O)c2cccc(-c3cnc(N)c(C(=O)Nc4ccccc4)n3)c2)CC1` [Compound I-59, 3-amino-6-(3-(4-methylpiperazine-1-carbonyl)phenyl)-N-phenylpyrazine-2-carboxamide] was tested. Which Ki did it give?
The Ki was 0.1 to 5 µM.

With `COc1ccccc1NC(=O)c1nc(-c2ccc3[nH]ncc3c2)cnc1N` [Compound I-36, 3-amino-6-(1H-indazol-5-yl)-N-(2-methoxyphenyl)pyrazine-2-carboxamide] as the molecule, how does the Ki read?
Its Ki is 0.01 to 0.1 µM.

Which Ki does the source give for `Nc1ncc(-c2ccc(C(=O)N3CCOCC3)cc2)nc1-c1nnc(-c2ccccc2)o1` [IA-13] here?
Its Ki is 0.01 to 0.1 µM.

`C#Cc1ccccc1-c1cnc(N)c(-c2nnc(-c3ccccc3)o2)n1` [IA-194, 5-(2-ethynylphenyl)-3-(5-phenyl-1,3,4-oxadiazol-2-yl)pyrazin-2-amine] was tested. Which Ki did it give?
Its Ki is 0.1 to 5 µM.

For `CN(C)C(=O)c1ccc(-c2cnc(N)c(-c3nnc(-c4cccn4C)o3)n2)cc1` [IA-135, 4-[5-amino-6-[5-(1-methylpyrrol-2-yl)-1,3,4-oxadiazol-2-yl]pyrazin-2-yl]-N,N-dimethyl-benzamide], which Ki is on record?
Its Ki is no more than 0.01 µM.

For `CN(C)C(=O)c1ccc(-c2cnc(N)c(-c3nnc(-c4ccc(CNC(=O)OC(C)(C)C)cc4)o3)n2)cc1` [IA-162, tert-butyl N-[[4-[5-[3-amino-6-[4-(dimethylcarbamoyl)phenyl]pyrazin-2-yl]-1,3,4-oxadiazol-2-yl]phenyl]methyl]carbamate], which Ki is on record?
Its Ki is 0.01 to 0.1 µM.

For `CCS(=O)(=O)c1ccc(-c2cnc(N)c(-c3nnc(-c4ccc(CNC)cc4)o3)n2)cc1` [IA-307, 5-(4-(ethylsulfonyl)phenyl)-3-(5-(4-((methylamino)methyl)phenyl)-1,3,4-oxadiazol-2-yl)pyrazin-2-amine], which Ki is on record?
The Ki was no more than 0.01 µM.

How did the Ki turn out when `CCC(C)S(=O)(=O)c1ccc(-c2cnc(N)c(-c3nnc(-c4ccc(CNC)cc4)o3)n2)cc1` (centres unmarked) [IA-313, 3-[5-[4-(methylaminomethyl)phenyl]-1,3,4-oxadiazol-2-yl]-5-(4-sec-butylsulfonylphenyl)pyrazin-2-amine] was run?
Its Ki is no more than 0.01 µM.

`CNCc1ccc(-c2nnc(-c3nc(-c4ccc(S(=O)(=O)C(C)C)c(Cl)c4)cnc3N)o2)cc1` [IA-305, 5-(3-chloro-4-isopropylsulfonyl-phenyl)-3-[5-[4-(methylaminomethyl)phenyl]-1,3,4-oxadiazol-2-yl]pyrazin-2-amine] was tested. Which Ki did it give?
The Ki was no more than 0.01 µM.

How did the Ki turn out when `Nc1ncc(-c2ccc(C(=O)N3CCCNCC3)cc2)nc1-c1cc(-c2ccccc2)no1` [IIA-3] was run?
The Ki was no more than 0.01 µM.

`Nc1ncc(-c2ccc(N3CCOCC3)cc2)nc1C(=O)Nc1ccccc1` [Compound I-13, 3-amino-6-(4-morpholinophenyl)-N-phenylpyrazine-2-carboxamide] was tested. Which Ki did it give?
The Ki was 0.1 to 5 µM.

`Nc1cccc(-c2nnc(-c3nc(-c4cccnc4)cnc3N)[nH]2)c1` [Compound I-140, 3-(5-(3-aminophenyl)-4H-1,2,4-triazol-3-yl)-5-(pyridin-3-yl)pyrazin-2-amine] was tested. Which Ki did it give?
Its Ki is 0.01 to 0.1 µM.

How did the Ki turn out when `CC(C)S(=O)(=O)c1ccc(-c2cnc(N)c(-c3nnc(N4CCC(CN)CC4)o3)n2)cc1` [IA-138, 3-[5-[4-(aminomethyl)-1-piperidyl]-1,3,4-oxadiazol-2-yl]-5-(4-isopropylsulfonylphenyl)pyrazin-2-amine] was run?
The Ki was 0.01 to 0.1 µM.

Which Ki does the source give for `NC(=O)c1ccc(-c2cnc(N)c(-c3nnc(-c4ccccc4)o3)n2)cc1` [IA-218, 4-[5-amino-6-(5-phenyl-1,3,4-oxadiazol-2-yl)pyrazin-2-yl]benzamide] here?
The Ki was 0.01 to 0.1 µM.

With `Nc1ncc(-c2ccc(C(=O)N3CCCNCC3)cc2)nc1C(=O)Nc1nc2ccccc2o1` [Compound V-5] as the molecule, how does the Ki read?
Its Ki is 0.01 to 0.1 µM.

With `CN(C)C(=O)c1ccc(-c2cnc(N)c(-c3nnc(NC(=O)c4ccccc4)o3)n2)cc1` [IA-287, 4-[5-amino-6-(5-benzamido-1,3,4-oxadiazol-2-yl)pyrazin-2-yl]-N,N-dimethyl-benzamide] as the molecule, how does the Ki read?
Its Ki is 0.1 to 5 µM.

With `Nc1ccccc1-c1cnc(N)c(-c2nnc(-c3ccccc3)o2)n1` [IA-58] as the molecule, how does the Ki read?
The Ki was 0.01 to 0.1 µM.

Which Ki does the source give for `Nc1ncc(-c2cccnc2)nc1C(=O)Nc1ccccc1` [Compound I-85, 3-amino-N-phenyl-6-(pyridin-3-yl)pyrazine-2-carboxamide] here?
The Ki was 0.01 to 0.1 µM.

How did the Ki turn out when `CN(C)C(=O)c1ccc(-c2cnc(N)c(-c3nnc(NCc4ccccc4)o3)n2)cc1` [IA-55, 4-(5-amino-6-(5-(benzylamino)-1,3,4-oxadiazol-2-yl)pyrazin-2-yl)-N,N-dimethylbenzamide] was run?
The Ki was 0.1 to 5 µM.

With `CS(=O)(=O)c1ccc(-c2cnc(N)c(C(=O)Nc3ccccn3)n2)cc1` [VII-6] as the molecule, how does the Ki read?
Its Ki is 0.01 to 0.1 µM.

For `N#Cc1cc(C(=O)N2CCCNCC2)ccc1-c1cnc(N)c(-c2nnc(-c3cccs3)o2)n1` [IA-152, 2-(5-amino-6-(5-(thiophen-2-yl)-1,3,4-oxadiazol-2-yl)pyrazin-2-yl)-5-(1,4-diazepane-1-carbonyl)benzonitrile], which Ki is on record?
The Ki was no more than 0.01 µM.

With `Nc1ncc(-c2ccc(O)nc2)nc1-c1nc2ccccc2[nH]1` [Compound I-137, 5-(5-amino-6-(1H-benzo[d]imidazol-2-yl)pyrazin-2-yl)pyridin-2-ol] as the molecule, how does the Ki read?
Its Ki is 0.01 to 0.1 µM.

With `Nc1ncc(-c2ccc(N3CCOCC3)nc2)nc1C(=O)Nc1ccccc1` [Compound I-34, 3-amino-6-(6-morpholinopyridin-3-yl)-N-phenylpyrazine-2-carboxamide] as the molecule, how does the Ki read?
The Ki was 0.01 to 0.1 µM.

Which Ki does the source give for `CC(=O)c1ccc(-c2cnc(N)c(C(=O)Nc3ccccc3)n2)cc1` [Compound I-17, 6-(4-acetylphenyl)-3-amino-N-phenylpyrazine-2-carboxamide] here?
The Ki was 0.1 to 5 µM.

For `Nc1ncc(-c2cccc(C(=O)NC3CCOCC3)c2)nc1C(=O)Nc1ccccc1` [Compound I-66, 3-amino-N-phenyl-6-(3-(tetrahydro-2H-pyran-4-ylcarbamoyl)phenyl) pyrazine-2-carboxamide], which Ki is on record?
Its Ki is 0.01 to 0.1 µM.

`Nc1ncc(-c2ccc(S(=O)(=O)NCCO)cc2)nc1-c1nnc(-c2ccccc2)o1` [IA-26] was tested. Which Ki did it give?
The Ki was no more than 0.01 µM.

Which Ki does the source give for `CC(C)S(=O)(=O)c1ccc(-c2cnc(N)c(-c3nnc(CCCCN)o3)n2)cc1` [IA-92, 3-[5-(4-aminobutyl)-1,3,4-oxadiazol-2-yl]-5-(4-isopropylsulfonylphenyl) pyrazin-2-amine] here?
Its Ki is 0.1 to 5 µM.

For `CCc1ncccc1NC(=O)c1nc(-c2ccc(S(C)(=O)=O)cc2)cnc1N` [VII-4], which Ki is on record?
Its Ki is 0.01 to 0.1 µM.

`Nc1ncc(-c2ccc(C(=O)N3CCCOCC3)cc2)nc1-c1nnc(-c2ccccc2)o1` [IA-15] was tested. Which Ki did it give?
The Ki was no more than 0.01 µM.

Which Ki does the source give for `CC(C)S(=O)(=O)c1ccc(-c2cnc(N)c(-c3nnc(-c4ccc(CNCCO)cc4)o3)n2)cc1` [IA-178, 2-(4-(5-(3-amino-6-(4-(isopropylsulfonyl)phenyl)pyrazin-2-yl)-1,3,4-oxadiazol-2-yl)benzylamino)ethanol] here?
The Ki was no more than 0.01 µM.

With `CC(C)S(=O)(=O)c1ccc(-c2cnc(N)c(-c3nnc(-c4ccc(C(C)(C)N)cc4)o3)n2)cc1` [IA-311, 3-[5-[4-(1-amino-1-methyl-ethyl)phenyl]-1,3,4-oxadiazol-2-yl]-5-(4-isopropylsulfonylphenyl)pyrazin-2-amine] as the molecule, how does the Ki read?
The Ki was no more than 0.01 µM.

`COC1CN(C(=O)c2cccc(-c3cnc(N)c(C(=O)Nc4ccccc4)n3)c2)C1` [Compound I-60, 3-amino-6-(3-(3-methoxyazetidine-1-carbonyl)phenyl)-N-phenylpyrazine-2-carboxamide] was tested. Which Ki did it give?
The Ki was 0.1 to 5 µM.
